Read-outs that look alike come from different tables or passages of the source.

One assay deals with ssDNA PolyT40. In words: EMSA with ssDNA PolyT40. The assay is classed as binding.
For another assay, the system named is ssDNA PolyT200. The experiment in a line: EMSA with ssDNA PolyT200. The format is binding. On the procedure: The peptide-molecule conjugates of Examples 16, 17 and 18 (Glc2-AA-U2, Glc2-AA-U4, Glc2-AA-U6) were dispersed in distilled water. […] After preparing the mixtures of the peptide-molecule conjugates of Examples 16, 17 and 18 (Glc2-AA-U2, Glc2-AA-U4, Glc2-AA-U6) and the ssDNA PolyT200 (5 μL) at the nucleobase ratios described above, they were analyzed by EMSA.
The aqueous solution of the peptide-molecule conjugate of Example 19 (Glc2-AA-U8) was sonicated for 5 minutes or heated at 90° C. for 5 minutes, respectively. The heated peptide-molecule conjugate was indicated by ‘heat’.
The mixtures prepared by mixing the peptide-molecule conjugate of Example 19 (Glc2-AA-U8) aqueous solution (sonicated or heated) and ssDNA PolyT200 (5 μL) at nucleobase ratios of 20, 30 or 40 were analyzed by EMSA.

Another assay relates to EGFP mRNA. The experiment in a line: EMSA of nanostructure formation with EGFP mRNA. The format is binding. Here is the method: When a nanostructure was formed through self-assembly by reacting a peptide-molecule conjugate (SAB) with a nucleic acid material (dsDNA or mRNA), agarose gel EMSA was conducted to measure their interactions, binding ratio, stability, etc.
First, the nucleic acid material of a fixed concentration (100 fmol mRNA) was reacted with the peptide-molecule conjugate (SAB) of various concentrations. Immediately before mixing with the nucleic acid material, the peptide-molecule conjugate (SAB) was sonicated for 5 minutes to prevent self-aggregation. The sonicated peptide-molecule conjugate (SAB, 5 μL) was added to the nucleic acid material ([…]) and a nanostructure was prepared by adding distilled water. The sample was prepared by snap cooling. Specifically, after heating at 70° C. for 10 minutes and snap-cooling on ice, the prepared sample was stored at room temperature. The stored sample was mixed with 2 μL of 60% glycerol. Electrophoresis was performed at 100 V for 60 minutes on 0.8% agarose gel using 1×TBE. The band was observed after staining with SYBR™ Gold nucleic acid gel stain (Invitrogen, Waltham, USA).
After sonicating the peptide-molecule conjugate (SAB-gn, n=1 to 6) aqueous solution for 5 minutes, it was immediately mixed with an EGFP mRNA (200 μL) solution. […] An […] nanostructure was prepared as follows by mixing the peptide-molecule conjugate (SAB-gn, n=1 to 6) with the EGFP mRNA. […] The EGFP mRNA and the peptide-molecule conjugate (SAB-gn, n=1 to 6) were mixed at a charge ratio (+/−) of 0, 0.008, 0.016, 0.031, 0.063, 0.125, 0.25, 0.5, 1, 2, 4, 8, 16, 32 or 50.
After incubating the mixture solution overnight and centrifuging at 16,100 g for 30 minutes, the mixture was resuspended in deionized water. After washing twice, the resulting nanostructure was analyzed by EMSA.
After incubating the mixture solution overnight and centrifuging at 16,100 g for 30 minutes, the mixture was resuspended in deionized water.
After heating the mixed solution for 10 minutes at 70° C., it was immediately snap-cooled on ice. RiboRuler Low Range RNA Ladder and RiboRuler High Range RNA Ladder (Thermo Scientific, Waltham, USA) were used on the two lanes on the left side of agarose gel in order to identify the relative locations of the EGFP mRNA bands. The bands of the RiboRuler Low Range RNA Ladder correspond to 1000, 800, 600, 400, 300, 200 and 100 bases, from top to bottom, and the bands of the RiboRuler High Range RNA Ladder correspond to 6000, 4000, 3000, 2000, 1500, 1000, 500 and 200 bases, from top to bottom. Then, the mixtures with charge ratios (+/−) of 0, 0.031, 0.063, 0.125, 0.25, 0.5, 1, 2, 4, 8 and 16 were loaded in sequence.
After heating the mixed solution for 10 minutes at 70° C., it was immediately snap-cooled on ice. RiboRuler High Range RNA Ladder (Thermo Scientific, Waltham, USA) was used on the left side of agarose gel in order to identify the relative locations of the EGFP mRNA bands. The bands of the RiboRuler High Range RNA Ladder correspond to 6000, 4000, 3000, 2000, 1500, 1000, 500 and 200 bases, from top to bottom. Then, the samples were loaded with charge ratios (+/−) of 00, 0.063, 0.125, 0.25, 0.5, 1, 2, 4, 8, 16 and 32 in sequence.

Setting [1] is: different nucleobase ratios (20-100).
The mark [2] stands for this setting: 20 nM EGFP mRNA, 70° C. 10 minutes, snap-cooled.

Procedure for ssDNA PolyT100: The concentration of the ssDNA was fixed and the concentration of the peptide-molecule conjugate aqueous solution was varied based on the nucleobase ratio.
After incubating the mixture of the peptide-molecule conjugate and ssDNA overnight, it was analyzed by EMSA.

“Ac-(PEG8)-AELAALEAELAALE(Ahx)2-E (adenine)E (adenine)-(Ahx)2-KLAALKAKLAALKAG-(PEG8) [PEG82-AA-U0]”: the “electrophoretic mobility (EMSA)” value in the assay with ssDNA PolyT40 (nucleobase ratio 1280:1, compared with Example 12) was “delayed relatively more”.

Regarding “Ac-(PEG8)-AELAALEAELAALE-(Ahx)2-E (adenine)-(Ahx)2-KLAALKAKLAALKAG-(PEG8) [PEG82-A-U0]”, in the assay with ssDNA PolyT40 (nucleobase ratio 640), the “electrophoretic mobility (EMSA)” value is listed as “delayed slightly”.

“Ac-R-GS-UELUALEUELAULE-(Ahx)2-E (adenine)E (adenine)-(Ahx)2-KLUALKUKLAULKUG-K (glucose) [R-AA-Glc-U8]”: the “nanostructure formation (EMSA)” value with ssDNA PolyT200 (nucleobase ratio 60) is “successfully form”.

Consider “Ac-R-GS-UELUALEUELAULE-(Ahx)2-E (thymine)E (thymine)-(Ahx)2-KLUALKUKLAULKUG-K (glucose) [R-TT-Glc-U8]”, for which the “nanostructure formation (EMSA)” value with ssDNA PolyT200 (nucleobase ratio 60) is “successfully form”.

With “Ac-R-GS-UELUALEUELAULE-(Ahx)2-E (thymine)E (thymine)-(Ahx)2-KLUALKUKLAULKUG-K(PEG8)2 [R-TT-PEG82-U8]”, the “nanostructure formation (EMSA)” value in the assay with ssDNA PolyT200 (setting [1]) is “successfully form”.

As to “Ac-R-GS-UELUALEUELAULE-(Ahx)2-E (thymine)E (thymine)-(Ahx)2-KLUALKUKLAULKUG-K(PEG8) [R-AA-PEG8-U8]”, the “nanostructure formation (EMSA)” value in the assay on ssDNA PolyT200 (setting [1]) is listed as “successfully form”.

For the substance “Ac-S-GS-UELUALEUELAULE-(Ahx)2-E (thymine)E (thymine)-(Ahx)2-KLUALKUKLAULKUG-K(PEG8) [S-TT-PEG8-U8]”, the “nanostructure formation (EMSA)” value in the assay with ssDNA PolyT200 (setting [1]) is given as “successfully form”.

For “Glucose-(PEG8)-AELAALEAELAALE-(Ahx)2-K-(Ahx)2-KLAALKAKLAALKAG-(PEG8)-K(^Nglucose)-NH2 [SAB-g2]”, the “+/− (optimum charge ratio of EGFP mRNA and conjugate showing completely delayed electrophoretic mobility)” value with EGFP mRNA is reported as more than 30.

“Glucose-(PEG8)-AELAALEAELAALE-(Ahx)2-K-(Ahx)2-KLAALKAKLAALKAG-(PEG8)-NH2 [SAB-g1]”: in the assay on EGFP mRNA, the “+/− (optimum charge ratio of EGFP mRNA and conjugate showing completely delayed electrophoretic mobility)” value was found to be 20.

For the substance “Glucose-GS-AELAALEAELAALE-(Ahx)2-E (adenine)-E (adenine)-(Ahx)2-KLAALKAKLAALKAG-GS [Glc1-AA-U0]”, the “electrophoretic mobility (EMSA)” value with ssDNA PolyT100 (nucleobase ratio 40:1, compared with Example 15) is given as “delayed relatively more”; in the assay on ssDNA PolyT100 (nucleobase ratio 80:1), “delayed completely”.

In the case of “Glucose-GS-AELAALEAELAALE-(Ahx)2-E (thymine)-E (thymine)-(Ahx)2-KLAALKAKLAALKAG-GS [Glc1-TT-U0]”, in the assay with ssDNA PolyT100 (nucleobase ratio 80:1), the “electrophoretic mobility (EMSA)” value is recorded as “no electrophoretic mobility was observed”.

For the substance “Glucose-GS-AELAALEAELAALE-(Ahx)2-K-(Ahx)2-KLAALKAKLAALKAG-K(^Nglucose)-NH2 [SAB-g3]”, in the assay with EGFP mRNA, the “+/− (optimum charge ratio of EGFP mRNA and conjugate showing completely delayed electrophoretic mobility)” value amounted to 0.25; the Hill coefficient is 4.6; the “half-saturation constant KSAB-g3” value was found to be 0.152.

Consider “Glucose-GS-AELAALEUELAALE-(Ahx)2-E (adenine)E (adenine)-(Ahx)2-KLAALKUKLAALKAG-K (glucose) [Glc2-AA-U2]”, for which the “nanostructure formation (EMSA)” value with ssDNA PolyT200 (setting [1]) is given as “formed successfully”.

“Glucose-GS-AELAALEUELAALE-(Ahx)2-K-(Ahx)2-KLAALKUKLAALKAG-K(^Nglucose)-NH2 [SAB-g4]”: the “+/− (optimum charge ratio of EGFP mRNA and conjugate showing completely delayed electrophoretic mobility)” value in the assay on EGFP mRNA is listed as 5.

With “Glucose-GS-AELUALEAELAULE-(Ahx)2-E (adenine)E (adenine)-(Ahx)2-KLUALKAKLAULKAG-K (glucose) [Glc2-AA-U4]”, the “nanostructure formation (EMSA)” value with ssDNA PolyT200 (setting [1]) is recorded as “formed successfully”.

In the case of “Glucose-GS-AELUALEAELAULE-(Ahx)2-K-(Ahx)2-KLUALKAKLAULKAG-K(^Nglucose)-NH2 [SAB-g5]”, the “+/− (optimum charge ratio of EGFP mRNA and conjugate showing completely delayed electrophoretic mobility)” value in the assay with EGFP mRNA amounted to 10.

Regarding “Glucose-GS-AELUALEUELAULE-(Ahx)2-E (adenine)E (adenine)-(Ahx)2-KLUALKUKLAULKAG-K (glucose) [Glc2-AA-U6]”, the “nanostructure formation (EMSA)” value in the assay on ssDNA PolyT200 (setting [1]) was “formed successfully”.

Regarding “Glucose-GS-AELUALEUELAULE-(Ahx)2-K-(Ahx)2-KLUALKUKLAULKAG-K(^Nglucose)-NH2 [SAB-g6]”, in the assay on EGFP mRNA, the “+/− (optimum charge ratio of EGFP mRNA and conjugate showing completely delayed electrophoretic mobility)” value was more than 4.

In the case of “Glucose-GS-UELUALEUELAULE-(Ahx)2-E (adenine)E (adenine)-(Ahx)2-KLUALKUKLAULKUG-K (glucose) [Glc2-AA-U8]”, the “nanostructure formation with EGFP mRNA (EMSA)” value in the assay with EGFP mRNA (four conjugates used together (AA 6%, CC 21%, GG 26%, TT 47%), nucleobase ratio 1:1-1:15) is listed as “successfully forms the nanostructure”. For the same substance, the “nanostructure formation (EMSA) after sonication or heating of conjugate” value in the assay with ssDNA PolyT200 (nucleobase ratios 20, 30 or 40, sonicated 5 minutes or heated at 90° C. 5 minutes) was “successfully binding to ssDNA PolyT200”.

As to “Glucose-GS-UELUALEUELAULE-(Ahx)2-E (cytosine)E (cytosine)-(Ahx)2-KLUALKUKLAULKUG-K (glucose) [Glc2-CC-U8]”, the “nanostructure formation with EGFP mRNA (EMSA)” value in the assay with EGFP mRNA is “successfully forms the nanostructure”.

Turning to “Glucose-GS-UELUALEUELAULE-(Ahx)2-E (guanine)E (guanine)-(Ahx)2-KLUALKUKLAULKUG-K (glucose) [Glc2-GG-U8]”, in the assay on EGFP mRNA, the “nanostructure formation with EGFP mRNA (EMSA)” value is “successfully forms the nanostructure”.

In the case of “Glucose-GS-UELUALEUELAULE-(Ahx)2-E (thymine)E (thymine)-(Ahx)2-KLUALKUKLAULKUG-K (glucose) [Glc2-TT-U8]”, the “nanostructure formation with EGFP mRNA (EMSA)” value in the assay on EGFP mRNA is “successfully forms the nanostructure”.

With “Glucose-SGSG-C-GG-AUAUAUAUAUA-GG-R-GG-AUAUAUAUAUA-GG-C (cyclic; disulfide) [SAB #31]”, in the assay with EGFP mRNA, the “EMSA bands of EGFP mRNA” value is “bands of the EGFP mRNA weaken gradually with the increase of charge ratio”.

As to “Glucose-SGSG-C-GG-AUAUAUAUAUA-GG-R-GG-AUAUAUAUAUA-GG-C (linear) [#30]”, the “charge ratio (+/−) at which a complete nanostructure was formed” value (“charge ratio (+/−)” for short) with EGFP mRNA was not below 8.

Consider “Glycolic acid-SGSG-C-GG-AUAUAUAUAUA-GG-R-GG-AUAUAUAUAUA-GG-C (cyclic; disulfide) [cyc-R(AU)A5-Ga]”, for which the “charge ratio (+/−)” value in the assay on EGFP mRNA (setting [2]) is on record as 16.

Take “Glycolic acid-SGSG-C-GG-AUAUAUAUAUA-GG-R-GG-AUAUAUAUAUA-GG-C (linear) [lin-R(AU)A5-Ga]”: in the assay with EGFP mRNA (setting [2]), the “charge ratio (+/−)” value is given as not below 1.0.
